Reference: US20220288223A1, “ACTIVATABLE SPECIFIC BINDING MEMBER COMPLEXES, AND METHODS OF MAKING AND USING SAME” (The Regents of the University of California, priority 2019, published 2022)

Legend:
[1] = tested on: orthotopic Cal-27 xenograft tumors; assay: In vivo ratiometric fluorescence imaging of RACPPs in orthotopic tongue tumor model; conditions: mice, orthotopic Cal-27 tongue tumors, IV injection
Description: FIG. 2. In vivo ratiometric fluorescence imaging of RACPPs in orthotopic tongue tumor model (Cal27) for protease selective probes.

[2] = tested on: head and neck cancer cell line (Cal-27); assay: Immunohistocytochemistry, HRP-dependent DAB staining (FIG. 4); assay type: cell-based
Thrombin = Thrombin (Homo sapiens, UniProt P00734); assay: Gel electrophoresis of PA-cetuximab after thrombin treatment (FIG. 5); assay type: biochemical; conditions: thrombin activation
Description: Protease cleavage of blocked PA-cetuximab causes size change as CDR blocking domains is proteolytically released from cetuximab panibody. Lane 1 is a protein marker.

EGFR = EGFR (Homo sapiens, UniProt P00533); assay: EGFR binding curve of PA-cetuximab with and without thrombin (FIG. 4)

YGRAAA
Ratiometric fluorescence labeling of tumor versus adjacent tissue [1]: tumor specific labeling at high intensity with very low labeling of adjacent tissue

TGRAAA
Ratiometric fluorescence labeling of tumor versus adjacent tissue [1]: high level localized uptake at the center of the tumor

PLGC(me)AG
Ratiometric fluorescence labeling of tumor versus adjacent tissue [1]: good cleavage in the tumor but also had high signal in adjacent tongue

KLRFSQK [Cy5/Cy7 RACPP, cathepsin cleavable probe]
Ratiometric fluorescence labeling of tumor versus adjacent tissue [1]: very selective targeting to cancerous tongue

(Acety-QGQSGQCISPRGCPDGPYVMY-PEG6-(Nle-TPRSFL)-PEG24)n-cetuximab [PA-cetuximab]
Binding to Cal-27 cells (DAB staining on membranes) ([2]; FIG. 4 panel C, equivalent with no antibody control (E)): blocks binding
Binding to Cal-27 cells (DAB staining on membranes) ([2]; FIG. 4 panel D): binding
Binding to cells (Cal-27) that express EGFR ([2]; after thrombin treatment): allow binding
Change in size of inhibited complex on acrylamide gel (Thrombin): size shift
EGFR binding (EGFR; after thrombin treatment, EGFR protein): allow binding
EGFR binding (EGFR; without thrombin (solid line)): blocked
